The assay has as its target T1, HDAC6 enzyme (Homo sapiens, UniProt Q9UBN7).
T1 construct: prepared by transducing full length HDAC6 gene into Sf-9 insect cells; GST; purchased SignalChem; host or cells: Sf-9 insect cells
T1 sequence (Q9UBN7 1-1215): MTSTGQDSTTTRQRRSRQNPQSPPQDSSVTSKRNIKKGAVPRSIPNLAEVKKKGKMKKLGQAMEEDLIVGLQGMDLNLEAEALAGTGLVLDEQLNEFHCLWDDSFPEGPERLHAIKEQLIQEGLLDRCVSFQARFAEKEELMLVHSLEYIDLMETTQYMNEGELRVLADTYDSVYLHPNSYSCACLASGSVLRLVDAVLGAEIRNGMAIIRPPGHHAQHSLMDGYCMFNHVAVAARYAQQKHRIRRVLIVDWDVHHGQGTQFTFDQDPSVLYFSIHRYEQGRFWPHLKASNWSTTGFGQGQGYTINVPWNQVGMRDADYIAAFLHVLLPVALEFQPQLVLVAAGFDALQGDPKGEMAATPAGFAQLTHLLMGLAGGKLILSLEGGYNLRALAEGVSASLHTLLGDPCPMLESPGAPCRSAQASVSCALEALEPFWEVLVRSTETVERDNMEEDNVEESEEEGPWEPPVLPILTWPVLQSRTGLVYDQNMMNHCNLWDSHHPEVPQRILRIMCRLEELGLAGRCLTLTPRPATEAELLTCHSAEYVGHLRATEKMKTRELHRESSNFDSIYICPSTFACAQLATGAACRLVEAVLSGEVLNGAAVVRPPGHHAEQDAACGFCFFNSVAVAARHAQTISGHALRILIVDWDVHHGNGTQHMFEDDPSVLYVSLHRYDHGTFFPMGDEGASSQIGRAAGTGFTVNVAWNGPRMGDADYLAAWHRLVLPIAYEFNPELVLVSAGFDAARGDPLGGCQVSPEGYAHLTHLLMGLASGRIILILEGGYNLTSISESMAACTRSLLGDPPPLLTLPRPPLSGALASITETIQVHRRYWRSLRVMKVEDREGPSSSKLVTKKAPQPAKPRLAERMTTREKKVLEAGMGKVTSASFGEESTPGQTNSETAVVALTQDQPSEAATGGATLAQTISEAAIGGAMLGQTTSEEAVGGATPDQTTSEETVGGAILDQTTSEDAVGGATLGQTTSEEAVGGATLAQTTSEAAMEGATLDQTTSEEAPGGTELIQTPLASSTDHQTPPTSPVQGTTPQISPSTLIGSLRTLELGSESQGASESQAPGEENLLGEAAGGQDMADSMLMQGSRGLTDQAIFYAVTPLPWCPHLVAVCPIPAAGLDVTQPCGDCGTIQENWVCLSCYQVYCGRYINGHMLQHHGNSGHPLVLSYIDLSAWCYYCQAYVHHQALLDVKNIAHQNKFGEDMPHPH
The assay can be described thus: HDAC6 enzyme inhibitory assay (HDAC-Glo I/II Assay kit, luminescence). The class given is biochemical. The settings on record: 10 μM test compound; wells without enzyme = 100% inhibition; read-out: HDAC6 inhibitory rate (%) (10 μM). How it is done: HDAC6 Enzyme Inhibitory Assay
HDAC6 enzyme prepared by transducing full length HDAC6 gene into Sf-9 insect cells and purifying by GST affinity column were purchased from SignalChem. Using this enzyme, HDAC6 enzyme inhibitory activities of the compound of the present invention were evaluated. Enzymes were used after preserved at −70° C. HDAC6 enzyme inhibitory activity of the compound of the present invention was measured using HDAC-Glo™ I/II Assay kit (Promega) according to the following experimental method. The test compound diluted with assay buffer (24 mM Tris-HCl (pH 7.5), 1 mM MgCl2, 0.35 mM KCl, 135 mM NaCl, 0.6 mM Glutathione, 0.01% Tween-20) was added to a 384-well plate by each 2 μL. Then, HDAC6 enzyme solution diluted with assay buffer was added thereto by each 4 μL, and the plate was incubated at room temperature for 60 min. After incubated, HDAC substrate-Developer solution prepared according to Promega protocol attached to the assay kit was added to the 384-well plate by each 2 μL, and the enzyme reaction was started. After reacting at room temperature for 20 min, luminescence level was measured using plate reader Envision (PerkinElmer). The inhibitory activity of each compound of Example was calculated as a relative activity value when luminescence level in wells without enzyme is considered as 100% inhibition.

Consider `Cn1ccc(OC2CCOCC2)c(-c2cc(F)cc(-c3nnc(C(F)F)o3)c2)c1=O` [Example 53a, 3-{3-[5-(difluoromethyl)-1,3,4-oxadiazol-2-yl]-5-fluorophenyl}-1-methyl-4-[(oxan-4-yl)oxy]pyridin-2(1H)-one], for which the inhibition at 10 µM turned out to be 100%. Regarding `Fc1cc(-c2nnc(C(F)F)o2)cc(-c2nccn2CC2CCOCC2)c1` [Example 30a, 2-(difluoromethyl)-5-(3-fluoro-5-{1-[(oxan-4-yl)methyl]-1H-imidazol-2-yl}phenyl)-1,3,4-oxadiazole], the inhibition at 10 µM came to 98%. As for `N#Cc1cnc(-c2cc(-c3nnc(C(F)F)o3)ccn2)n1Cc1cccc(F)c1` [Example 82a, 2-{4-[5-(difluoromethyl)-1,3,4-oxadiazol-2-yl]pyridin-2-yl}-1-[(3-fluorophenyl)methyl]-1H-imidazole-5-carbonitrile], the figure is 99%; as for `O=C1c2cc(-c3nnc(C(F)F)o3)cnc2CN1Nc1c(F)c(F)c(F)c(F)c1F` [Example 33c, 3-[5-(difluoromethyl)-1,3,4-oxadiazol-2-yl]-6-(pentafluoroanilino)-6,7-dihydro-5H-pyrrolo[3,4-b]pyridin-5-one], 99%; as for `O=C1NN(c2ccc(F)c(F)c2)Cc2ncc(-c3nnc(C(F)F)o3)cc21` [Example 34b, 3-[5-(difluoromethyl)-1,3,4-oxadiazol-2-yl]-7-(3,4-difluorophenyl)-7,8-dihydropyrido[2,3-d]pyridazin-5(6H)-one], 100%. The same measure for `CN(Cc1ccc(F)cc1)N1Cc2ccc(-c3nnc(C(F)F)o3)cc2C1=O` [Example 28c, 6-[5-(difluoromethyl)-1,3,4-oxadiazol-2-yl]-2-{[(4-fluorophenyl)methyl](methyl)amino}-2,3-dihydro-1H-isoindol-1-one]: 99%. For the molecule `Fc1cc(-c2nnc(C(F)F)o2)cc(-c2nccn2Cc2ccccn2)c1` [Example 6a], the inhibition at 10 µM was determined as 99%.

For the molecule `O=C1COC[C@@H](Cc2ccccc2)N1c1cc(-c2nnc(C(F)F)o2)ccn1` [Example 19a, (5R)-5-benzyl-4-{4-[5-(difluoromethyl)-1,3,4-oxadiazol-2-yl]pyridin-2-yl}morpholin-3-one], the inhibition at 10 µM was 99%. Regarding `CC1(COc2cccnc2-c2cc(F)cc(-c3nnc(C(F)F)o3)c2)COC1` [Example 18a], the inhibition at 10 µM came out at 98%. The same measure for `N#Cc1ccnc(Cn2ccnc2-c2cc(-c3nnc(C(F)F)o3)ccn2)c1` [Example 95a, 2-[(2-{4-[5-(difluoromethyl)-1,3,4-oxadiazol-2-yl]pyridin-2-yl}-1H-imidazol-1-yl)methyl]pyridine-4-carbonitrile]: 100%; for `FC(F)c1nnc(-c2ccnc(-c3nccn3Cc3ccccn3)c2)o1` [Example 3a, 4-[5-(difluoromethyl)-1,3,4-oxadiazol-2-yl]-2-{1-[(pyridin-2-yl)methyl]-1H-imidazol-2-yl}pyridine]: 99%; for `CN1C(=O)c2cc(-c3nnc(C(F)F)o3)ccc2CC1(C)c1ccc(F)cc1` (stereo not shown) [Example 13b, 7-[5-(difluoromethyl)-1,3,4-oxadiazol-2-yl]-3-(4-fluorophenyl)-2,3-dimethyl-3,4-dihydroisoquinolin-1(2H)-one]: 99%. As for `CN(Cc1ccccc1N1CCOCC1)N1Cc2ccc(-c3nnc(C(F)F)o3)cc2C1=O` [Example 58c, 6-[5-(difluoromethyl)-1,3,4-oxadiazol-2-yl]-2-(methyl{[2-(morpholin-4-yl)phenyl]methyl}amino)-2,3-dihydro-1H-isoindol-1-one], the figure is 100%. With `O=C(OCC(F)F)N(Cc1cnn(C2CC2)c1)N1Cc2ccc(-c3nnc(C(F)F)o3)cc2C1=O` [Example 13c, 2,2-difluoroethyl [(1-cyclopropyl-1H-pyrazol-4-yl)methyl]{6-[5-(difluoromethyl)-1,3,4-oxadiazol-2-yl]-1-oxo-1,3-dihydro-2H-isoindol-2-yl}carbamate], the inhibition at 10 µM is 99%. The same measure for `CCOC(=O)CCCN(C)N1Cc2ccc(-c3nnc(C(F)F)o3)cc2C1=O` [Example 50c, ethyl 4-[{6-[5-(difluoromethyl)-1,3,4-oxadiazol-2-yl]-1-oxo-1,3-dihydro-2H-isoindol-2-yl}(methyl)amino]butanoate]: 98%; for `CN1C(=O)c2cc(-c3nnc(C(F)F)o3)ccc2OC1(C)c1ccc(OC(F)(F)F)cc1` (stereo not shown) [Example 21b, 6-[5-(difluoromethyl)-1,3,4-oxadiazol-2-yl]-2,3-dimethyl-2-[4-(trifluoromethoxy)phenyl]-2,3-dihydro-4H-1,3-benzoxazin-4-one]: 99%. The same measure for `CN(C1CC1)N1Cc2ccc(-c3nnc(C(F)F)o3)cc2C1=O` [Example 66c, 2-[cyclopropyl(methyl)amino]-6-[5-(difluoromethyl)-1,3,4-oxadiazol-2-yl]-2,3-dihydro-1H-isoindol-1-one]: 94%.

For `Fc1cccc(Cc2ncnn2-c2cc(-c3nnc(C(F)F)o3)ccn2)c1` [Example 89a, 4-[5-(difluoromethyl)-1,3,4-oxadiazol-2-yl]-2-{5-[(3-fluorophenyl)methyl]-1H-1,2,4-triazol-1-yl}pyridine], the inhibition at 10 µM is 97%. For the molecule `O=C1c2cc(-c3nnc(C(F)F)o3)ccc2CN1Nc1ccc(F)cn1` [Example 39c, 6-[5-(difluoromethyl)-1,3,4-oxadiazol-2-yl]-2-[(5-fluoropyridin-2-yl)amino]-2,3-dihydro-1H-isoindol-1-one], the inhibition at 10 µM turned out to be 88%. As for `Fc1cccc(Cc2ccnn2-c2cc(-c3nnc(C(F)F)o3)ccn2)c1` [Example 87a, 4-[5-(difluoromethyl)-1,3,4-oxadiazol-2-yl]-2-{5-[(3-fluorophenyl)methyl]-1H-pyrazol-1-yl}pyridine], the figure is 99%. The same measure for `Fc1cc(-c2nnc(C(F)F)o2)cc(-c2ncccc2OCC2CCOC2)c1` (stereo not shown) [Example 12a, 2-{3-[5-(difluoromethyl)-1,3,4-oxadiazol-2-yl]-5-fluorophenyl}-3-[(oxolan-3-yl)methoxy]pyridine]: 99%; for `Cc1cc(Cn2ccnc2-c2cc(F)cc(-c3nnc(C(F)F)o3)c2)no1` [Example 61a, 2-(difluoromethyl)-5-(3-fluoro-5-{1-[(5-methyl-1,2-oxazol-3-yl)methyl]-1H-imidazol-2-yl}phenyl)-1,3,4-oxadiazole]: 98%.

As to `CN(Cc1cccc(-c2cnccn2)c1)N1Cc2ccc(-c3nnc(C(F)F)o3)cc2C1=O` [Example 53c, 6-[5-(difluoromethyl)-1,3,4-oxadiazol-2-yl]-2-(methyl{[3-(pyrazin-2-yl)phenyl]methyl}amino)-2,3-dihydro-1H-isoindol-1-one], the inhibition at 10 µM turned out to be 101%. The same measure for `CN(Cc1cncc(Cl)c1)N1Cc2ncc(-c3nnc(C(F)F)o3)cc2C1=O` [Example 70c, 6-{[(5-chloropyridin-3-yl)methyl](methyl)amino}-3-[5-(difluoromethyl)-1,3,4-oxadiazol-2-yl]-6,7-dihydro-5H-pyrrolo[3,4-b]pyridin-5-one]: 100%; for `O=C1NN(c2ccc(F)c(Cl)c2)Cc2ccc(-c3nnc(C(F)F)o3)cc21` [Example 31b, 3-(3-chloro-4-fluorophenyl)-7-[5-(difluoromethyl)-1,3,4-oxadiazol-2-yl]-3,4-dihydrophthalazin-1(2H)-one]: 100%.

(Values after US12084436B2, “Heterocyclic compound” (Takeda Pharmaceutical Company Limited, priority 2019, dated 2024).)
